Source: ChEMBL document CHEMBL4359915, “Design, synthesis and biological evaluation of novel diazaspiro[4.5]decan-1-one derivatives as potential chitin synthase inhibitors and antifungal agents” (Eur J Med Chem, 2019)
Values after ≈ are worked out from the molar mass of the structure shown.

How the values were obtained:
Candida tropicalis = test: Inhibition of Candida tropicalis ATCC 750 chitin synthase at 300 ug/ml using UDP-GlcNAc as substrate relative to control
Candida albicans [1] = test: Antifungal activity against Candida albicans ATCC 76615 assessed as growth inhibition measured after 24 hrs by two-fold broth dilution method; assay type: functional; conditions: ATCC 76615, 24 h
Aspergillus fumigatus = test: Antifungal activity against Aspergillus fumigatus GIMCC 3.19 assessed as growth inhibition measured after 24 hrs by two-fold broth dilution method; assay type: functional; conditions: GIMCC 3.19, 24 h
Candida albicans [2] = test: Antifungal activity against Candida albicans ATCC 90023 assessed as growth inhibition measured after 24 hrs by two-fold broth dilution method; assay type: functional; conditions: ATCC 90023, 24 h
Cryptococcus neoformans = test: Antifungal activity against Cryptococcus neoformans ATCC 32719 assessed as growth inhibition measured after 24 hrs by two-fold broth dilution method; assay type: functional; conditions: ATCC 32719, 24 h
Aspergillus flavus = test: Antifungal activity against Aspergillus flavus ATCC 16870 assessed as growth inhibition measured after 24 hrs by two-fold broth dilution method; assay type: functional; conditions: ATCC 16870, 24 h
[3] = Inhibition of Candida tropicalis ATCC 750 chitin synthase using UDP-GlcNAc as substrate
Staphylococcus aureus [4] = test: Antibacterial activity against methicillin-resistant Staphylococcus aureus N315 assessed as growth inhibition measured after 24 hrs by two-fold broth dilution method; assay type: functional; conditions: N315, 24 h
Staphylococcus aureus [5] = test: Antibacterial activity against Staphylococcus aureus ATCC 25923 assessed as growth inhibition measured after 24 hrs by two-fold broth dilution method; assay type: functional; conditions: ATCC 25923, 24 h
Bacillus spizizenii = test: Antibacterial activity against Bacillus subtilis ATCC 6633 assessed as growth inhibition measured after 24 hrs by two-fold broth dilution method; assay type: functional; conditions: ATCC 6633, 24 h
Escherichia coli = test: Antibacterial activity against Escherichia coli JM 109 assessed as growth inhibition measured after 24 hrs by two-fold broth dilution method; assay type: functional; conditions: JM 109, 24 h
Pseudomonas aeruginosa = test: Antibacterial activity against Pseudomonas aeruginosa ATCC 9027 assessed as growth inhibition measured after 24 hrs by two-fold broth dilution method; assay type: functional; conditions: ATCC 9027, 24 h
Proteus vulgaris = test: Antibacterial activity against Bacillus proteus ATCC 8427 assessed as growth inhibition measured after 24 hrs by two-fold broth dilution method; assay type: functional; conditions: ATCC 8427, 24 h

NC(=O)OC[C@H](O)[C@@H](O)[C@H](N)C(=O)N[C@H](C(=O)O)[C@H]1O[C@@H](n2cc(CO)c(=O)[nH]c2=O)[C@H](O)[C@@H]1O [POLYOXIN B]
inhibition (Candida tropicalis): 85% | MIC (Candida albicans [1]): 32 µM (≈ 16.2 µg/mL) | MIC (Aspergillus fumigatus): 32 µM (≈ 16.2 µg/mL) | MIC (Candida albicans [2]): 129 µM (≈ 65.5 µg/mL) | MIC (Cryptococcus neoformans): 64 µM (≈ 32.5 µg/mL) | MIC (Aspergillus flavus): 32 µM (≈ 16.2 µg/mL) | IC50 [3]: 80 µM

Cc1ccc(NC(=O)[C@H](O)[C@@H](O)C(=O)N2CCC3(CCNC3=O)CC2)cc1
inhibition (Candida tropicalis): 48.7% | MIC (Candida albicans [1]): 340 µM (≈ 128 µg/mL) | MIC (Aspergillus fumigatus): 680 µM (≈ 255 µg/mL) | MIC (Candida albicans [2]): 680 µM (≈ 255 µg/mL) | MIC (Cryptococcus neoformans): 340 µM (≈ 128 µg/mL) | MIC (Aspergillus flavus): 170 µM (≈ 63.8 µg/mL) | MIC (Staphylococcus aureus [4]): 340 µM (≈ 128 µg/mL) | MIC (Staphylococcus aureus [5]): 170 µM (≈ 63.8 µg/mL) | MIC (Bacillus spizizenii): 680 µM (≈ 255 µg/mL) | MIC (Escherichia coli): 340 µM (≈ 128 µg/mL) | MIC (Pseudomonas aeruginosa): 170 µM (≈ 63.8 µg/mL) | MIC (Proteus vulgaris): 680 µM (≈ 255 µg/mL)

CN[C@@H]1[C@H](O[C@H]2[C@H](O[C@H]3[C@H](O)[C@@H](O)[C@H](N=C(N)N)[C@@H](O)[C@@H]3N=C(N)N)O[C@@H](C)[C@]2(O)C=O)O[C@@H](CO)[C@H](O)[C@H]1O [STREPTOMYCIN]
MIC (Staphylococcus aureus [4]): 55 µM (≈ 32 µg/mL) | MIC (Staphylococcus aureus [5]): 28 µM (≈ 16.3 µg/mL) | MIC (Bacillus spizizenii): 28 µM (≈ 16.3 µg/mL) | MIC (Escherichia coli): 14 µM (≈ 8.14 µg/mL) | MIC (Pseudomonas aeruginosa): 7 µM (≈ 4.07 µg/mL) | MIC (Proteus vulgaris): 14 µM (≈ 8.14 µg/mL)

COc1ccccc1NC(=O)[C@H](O)[C@@H](O)C(=O)N1CCC2(CCNC2=O)CC1
inhibition (Candida tropicalis): 20.4% | MIC (Candida albicans [1]): 650 µM (≈ 254 µg/mL) | MIC (Aspergillus fumigatus): 330 µM (≈ 129 µg/mL) | MIC (Candida albicans [2]): 40 µM (≈ 15.7 µg/mL) | MIC (Cryptococcus neoformans): 330 µM (≈ 129 µg/mL) | MIC (Aspergillus flavus): 650 µM (≈ 254 µg/mL) | MIC (Staphylococcus aureus [4]): 330 µM (≈ 129 µg/mL) | MIC (Staphylococcus aureus [5]): 1310 µM (≈ 513 µg/mL) | MIC (Bacillus spizizenii): 650 µM (≈ 254 µg/mL) | MIC (Escherichia coli): 650 µM (≈ 254 µg/mL) | MIC (Pseudomonas aeruginosa): 650 µM (≈ 254 µg/mL) | MIC (Proteus vulgaris): 330 µM (≈ 129 µg/mL)

Cc1ccccc1NC(=O)[C@H](O)[C@@H](O)C(=O)N1CCC2(CCNC2=O)CC1
inhibition (Candida tropicalis): 49.8% | MIC (Candida albicans [1]): 1360 µM (≈ 511 µg/mL) | MIC (Aspergillus fumigatus): 340 µM (≈ 128 µg/mL) | MIC (Candida albicans [2]): 170 µM (≈ 63.8 µg/mL) | MIC (Cryptococcus neoformans): 680 µM (≈ 255 µg/mL) | MIC (Aspergillus flavus): 1360 µM (≈ 511 µg/mL) | MIC (Staphylococcus aureus [4]): 680 µM (≈ 255 µg/mL) | MIC (Staphylococcus aureus [5]): 680 µM (≈ 255 µg/mL) | MIC (Bacillus spizizenii): 340 µM (≈ 128 µg/mL) | MIC (Escherichia coli): 680 µM (≈ 255 µg/mL) | MIC (Pseudomonas aeruginosa): 340 µM (≈ 128 µg/mL) | MIC (Proteus vulgaris): 680 µM (≈ 255 µg/mL)

O=C(Nc1ccc(F)cc1)[C@H](O)[C@@H](O)C(=O)N1CCC2(CCNC2=O)CC1
inhibition (Candida tropicalis): 36.7% | MIC (Candida albicans [1]): 340 µM (≈ 129 µg/mL) | MIC (Aspergillus fumigatus): 340 µM (≈ 129 µg/mL) | MIC (Candida albicans [2]): 340 µM (≈ 129 µg/mL) | MIC (Cryptococcus neoformans): 670 µM (≈ 254 µg/mL) | MIC (Aspergillus flavus): 340 µM (≈ 129 µg/mL) | MIC (Staphylococcus aureus [4]): 340 µM (≈ 129 µg/mL) | MIC (Staphylococcus aureus [5]): 670 µM (≈ 254 µg/mL) | MIC (Bacillus spizizenii): 340 µM (≈ 129 µg/mL) | MIC (Escherichia coli): 670 µM (≈ 254 µg/mL) | MIC (Pseudomonas aeruginosa): 1350 µM (≈ 512 µg/mL) | MIC (Proteus vulgaris): 340 µM (≈ 129 µg/mL)

O=C(Nc1ccc(F)c(F)c1)[C@H](O)[C@@H](O)C(=O)N1CCC2(CCNC2=O)CC1
inhibition (Candida tropicalis): 36.7% | MIC (Candida albicans [1]): 640 µM (≈ 254 µg/mL) | MIC (Aspergillus fumigatus): 1290 µM (≈ 513 µg/mL) | MIC (Candida albicans [2]): 320 µM (≈ 127 µg/mL) | MIC (Cryptococcus neoformans): 80 µM (≈ 31.8 µg/mL) | MIC (Aspergillus flavus): 320 µM (≈ 127 µg/mL) | MIC (Staphylococcus aureus [4]): 1290 µM (≈ 513 µg/mL) | MIC (Staphylococcus aureus [5]): 640 µM (≈ 254 µg/mL) | MIC (Bacillus spizizenii): 640 µM (≈ 254 µg/mL) | MIC (Escherichia coli): 640 µM (≈ 254 µg/mL) | MIC (Pseudomonas aeruginosa): 320 µM (≈ 127 µg/mL) | MIC (Proteus vulgaris): 640 µM (≈ 254 µg/mL)

O=C(Nc1ccc(F)cc1F)[C@H](O)[C@@H](O)C(=O)N1CCC2(CCNC2=O)CC1
inhibition (Candida tropicalis): 65.2% | MIC (Candida albicans [1]): 640 µM (≈ 254 µg/mL) | MIC (Aspergillus fumigatus): 80 µM (≈ 31.8 µg/mL) | MIC (Candida albicans [2]): 320 µM (≈ 127 µg/mL) | MIC (Cryptococcus neoformans): 640 µM (≈ 254 µg/mL) | MIC (Aspergillus flavus): 320 µM (≈ 127 µg/mL) | MIC (Staphylococcus aureus [4]): 80 µM (≈ 31.8 µg/mL) | MIC (Staphylococcus aureus [5]): 320 µM (≈ 127 µg/mL) | MIC (Bacillus spizizenii): 160 µM (≈ 63.6 µg/mL) | MIC (Escherichia coli): 320 µM (≈ 127 µg/mL) | MIC (Pseudomonas aeruginosa): 320 µM (≈ 127 µg/mL) | IC50 [3]: 290 µM | MIC (Proteus vulgaris): 160 µM (≈ 63.6 µg/mL)

OC(Cn1cncn1)(Cn1cncn1)c1ccc(F)cc1F [FLUCONAZOLE]
MIC (Candida albicans [1]): 52 µM (≈ 15.9 µg/mL) | MIC (Aspergillus fumigatus): 104 µM (≈ 31.9 µg/mL) | MIC (Candida albicans [2]): 104 µM (≈ 31.9 µg/mL) | MIC (Cryptococcus neoformans): 52 µM (≈ 15.9 µg/mL) | MIC (Aspergillus flavus): 209 µM (≈ 64 µg/mL)

O=C(Nc1ccccc1Cl)[C@H](O)[C@@H](O)C(=O)N1CCC2(CCNC2=O)CC1
inhibition (Candida tropicalis): 85.5% | MIC (Candida albicans [1]): 1290 µM (≈ 511 µg/mL) | MIC (Aspergillus fumigatus): 320 µM (≈ 127 µg/mL) | MIC (Candida albicans [2]): 1290 µM (≈ 511 µg/mL) | MIC (Cryptococcus neoformans): 320 µM (≈ 127 µg/mL) | MIC (Aspergillus flavus): 1290 µM (≈ 511 µg/mL) | MIC (Staphylococcus aureus [4]): 320 µM (≈ 127 µg/mL) | MIC (Staphylococcus aureus [5]): 160 µM (≈ 63.3 µg/mL) | MIC (Bacillus spizizenii): 650 µM (≈ 257 µg/mL) | MIC (Escherichia coli): 320 µM (≈ 127 µg/mL) | MIC (Pseudomonas aeruginosa): 320 µM (≈ 127 µg/mL) | IC50 [3]: 140 µM | MIC (Proteus vulgaris): 160 µM (≈ 63.3 µg/mL)
